Values after ≈ are worked out from the molar mass of the structure shown.
What was measured:
Type in all cases: cell-based
C. albicans = test: MIC test strips, clinical C. albicans
Procedure: (§1) C. albicans (SC 5314), C. kruesi (clinical isolate), C. tropicalis (BCRC 20520), C. parapsilosis (BCRC 20515) and C. glabrate (BCRC 20586) were kindly provided by Dr. Ching-Hua Su from Taipei Medical University, Taipei, Taiwan. […] Candida species were cultured in YPD medium and their identities were confirmed by CHROMagar Candida plate (CHROMagar, Paris, France).

C. glabrate = test: MIC test strips, clinical C. glabrate
Procedure: as §1

C. parapsilosis = test: MIC test strips, clinical C. parapsilosis
Procedure: as §1

C. tropicalis = test: MIC test strips, clinical C. tropicalis
Procedure: as §1

[1] = specimen CP6-20, C. parapsilosis
[2] = specimen CP7-17, C. parapsilosis
[3] = specimen CP8-48, C. parapsilosis
[4] = specimen CT11-52, C. tropicalis
[5] = specimen CT12-54, C. tropicalis

OC(Cn1cncn1)(Cn1cncn1)c1ccc(F)cc1F [fluconazole]
Interpretation (C. albicans; specimen CA6-17, C. albicans): R | MIC (C. albicans; specimen CA6-17, C. albicans, read at 80% inhibition): 16 µg/mL (≈ 52.2 µM) | Interpretation (C. albicans; specimen CA7-3, C. albicans): S | MIC (C. albicans; specimen CA7-3, C. albicans): 2 µg/mL (≈ 6.53 µM) | Interpretation (C. albicans; specimen CA7-26, C. albicans): R | MIC (C. albicans; specimen CA7-26, C. albicans): 8 µg/mL (≈ 26.1 µM) | Interpretation (C. albicans; specimen CA7-30, C. albicans): S | MIC (C. albicans; specimen CA7-30, C. albicans): 1 µg/mL (≈ 3.27 µM) | Interpretation (C. albicans; specimen CA10-50, C. albicans): S | MIC (C. albicans; specimen CA10-50, C. albicans): 2 µg/mL (≈ 6.53 µM) | Interpretation (C. albicans; specimen CA10-65, C. albicans): S | MIC (C. albicans; specimen CA10-65, C. albicans): 1 µg/mL (≈ 3.27 µM) | Interpretation (C. glabrate; specimen CG5-8, C. glabrate): R | MIC (C. glabrate; specimen CG5-8, C. glabrate): 64 µg/mL (≈ 209 µM) | Interpretation (C. glabrate; specimen CG5-66, C. glabrate): S | MIC (C. glabrate; specimen CG5-66, C. glabrate): 16 µg/mL (≈ 52.2 µM) | Interpretation (C. glabrate; specimen CG7-37, C. glabrate): S | MIC (C. glabrate; specimen CG7-37, C. glabrate): 32 µg/ml | Interpretation (C. glabrate; specimen CG8-11, C. glabrate): R | MIC (C. glabrate; specimen CG8-11, C. glabrate): 64 µg/mL (≈ 209 µM) | Interpretation (C. parapsilosis; [1]): R | MIC (C. parapsilosis; [1]): 16 µg/mL (≈ 52.2 µM) | Interpretation (C. parapsilosis; [2]): S | MIC (C. parapsilosis; [2]): 8 µg/mL (≈ 26.1 µM) | Interpretation (C. parapsilosis; specimen CP8-20, C. parapsilosis): R | Interpretation (C. parapsilosis; [3]): S | MIC (C. parapsilosis; [3]): 4 µg/mL (≈ 13.1 µM) | Interpretation (C. parapsilosis; specimen CP12-37, C. parapsilosis): R | Interpretation (C. tropicalis; specimen CT6-29, C. tropicalis): R | MIC (C. tropicalis; specimen CT6-29, C. tropicalis): 32 µg/ml | Interpretation (C. tropicalis; specimen CT6-50, C. tropicalis): R | MIC (C. tropicalis; specimen CT6-50, C. tropicalis): 8 µg/mL (≈ 26.1 µM) | Interpretation (C. tropicalis; [4]): R | MIC (C. tropicalis; [4]): 32 µg/ml | Interpretation (C. tropicalis; [5]): R | MIC (C. tropicalis; [5]): 8 µg/mL (≈ 26.1 µM)

Reference: US11485776B2, “Antibodies against infectious diseases” (priority 2015, dated 2022)
